From publication PMC9820118, “Betulin Acid Ester Derivatives Inhibit Cancer Cell Growth by Inducing Apoptosis through Caspase Cascade Activation: A Comprehensive In Vitro and In Silico Study” (International Journal of Molecular Sciences, 2022)

What was measured:
MCF-7 cell line = assay: Antiproliferative activity, SRB assay, MCF-7 breast carcinoma cells; conditions: for IC50: Homo sapiens, MCF7, 72 h, read-out: Cytotoxicity IC50 against MCF-7 cell line; for Calculated Selectivity Index SI, MCF-7: IC50 BALB/3T3 / IC50 MCF-7
Procedure: (§3) The in vitro antiproliferative activity tests have been conducted against four human cancer cell lines: MV4-11 biphenotypic B myelomonocytic leukemia cell line, A549 lung carcinoma cell line, MCF-7 breast carcinoma cell line, PC-3 prostate carcinoma cell line and one normal BALB/3T3 mouse fibroblast cell line. […] All tested compounds were dissolved in DMSO and diluted with a culture medium to a desired concentration. […] Cell viability, after 72 h incubation of the cells with tested compounds, was determined using tetrazolinum dye MTT (for MV4-11 cells) or sulforhodamine B (SRB test, for MCF-7, A549, PC-3, BALB/3T3 cells) colorimetric assays.
(§4) Human biphenotypic B myelomonocytic leukemia MV4-11, murine normal fibroblast BALB/3T3 cells were obtained from the American Type Culture Collection (USA); and human lung carcinoma A549, human breast cancer MCF-7 and human prostate adenocarcinoma PC-3 were obtained from the European Collection of Authenticated Cell Cultures (UK).
(§5) MV4-11 and PC-3 cells were cultured in RPMI 1640 medium (HIIET PAS, Poland) with 1.0 mM sodium pyruvate (only MV4-11) and 10% fetal bovine serum (FBS) (all from Merck, Darmstadt, Germany). A549 cells were cultured in RPMI 1640 + Opti-MEM (1:1) ((HIIET PAS, Poland and Gibco, UK) supplemented with 5% fetal bovine serum (Merck, Darmstadt, Germany). The MCF-7 cells were cultured in Eagle medium (HIIET PAS, Poland) supplemented with 8 mg/mL of insulin and 1% of MEM NON-Essential amino acid (all Merck, Darmstadt, Germany). Normal fibroblasts BALB/3T3 cells were cultured in DMEM medium (Gibco, UK) supplemented with 10% fetal bovine serum and 1.0 mM sodium pyruvate (all from Merck, Darmstadt, Germany). All culture media were supplemented with 2 mM L-glutamine (Merck, Darmstadt, Germany), 100 units/ml penicillin, (Polfa Tarchomin S.A., Poland) and 100 µg/mL streptomycin (Merck, Darmstadt, Germany). All cell lines were grown at 37 °C in a 5% CO2 humidified atmosphere.
(§6) The solutions of the tested compounds were prepared by dissolving the substances in DMSO to the desired concentration (25 mM). Then, the tested compounds were diluted in a culture medium to reach the final concentrations. Before addition of the tested compounds (24 h prior), the cells were plated in 96-well plates (Sarstedt, Germany) at a density of 1 × 10^4, 0.75 × 10^4 (MCF-7) or 0.5 × 10^4 (A549) cells per well. The assay was performed after 72 h of exposure to 100, 10, 1 and 0.1 µM concentration of the tested agents. […] The SRB method determined the amount of cellular proteins. The concentration of the colorimetric probe (formazan in MTT or sulforhodamine B in SRB method) was determined by an optical density measurement using a standard microplate reader for 96-well plates. After optical density measurement, using the data of the mean absorbances of control cells (AbCC), the absorbances of cells treated by the tested compound (AbTr) (for each concentration separately) and the absorbance of the cultured medium (AbCM) the % of cell proliferation inhibition was calculated according to the following formula: % inh. cells proliferation=100−AbTr−AbCM/AbCC−AbCM×100
(§7) From the obtained proliferation inhibition values, effect-concentration curves of the compound used were plotted. […] IC50 values were calculated for each experiment separately using the Prolab-3 system based on Cheburator 0.4 software [36] and mean values (±SD) are presented. Each compound in each concentration was tested in triplicate in a single experiment, which was repeated 3–5 times.

[1] = Cytotoxicity, SRB assay, normal BALB/3T3 fibroblasts; conditions: mouse
Procedure: as §3, §4, §5, §6, §7

PC-3 cell line = assay: Antiproliferative activity, SRB assay, PC-3 prostate carcinoma cells; conditions: for IC50: Homo sapiens, PC-3, 72 h, read-out: Cytotoxicity IC50 against PC-3 cell line; for Calculated Selectivity Index SI, PC-3: IC50 BALB/3T3 / IC50 PC-3
Procedure: as §3, §4, §5, §6, §7

MV4-11 cells = assay: Antiproliferative activity, MTT assay, MV4-11 leukemia cells; format: cell-based, human; conditions: for IC50: Homo sapiens, MV4-11, 72 h, 72 h incubation, MTT, read-out: Growth inhibition IC50, leukemia cell line MV4-11; for Calculated Selectivity Index SI, MV4-11: IC50 BALB/3T3 / IC50 MV4-11
A549 cell line = assay: Antiproliferative activity, SRB assay, A549 lung carcinoma cells; conditions: for IC50: Homo sapiens, A549, 72 h, read-out: Cytotoxicity IC50 against A549 cell line; for Calculated Selectivity Index SI, A549: IC50 BALB/3T3 / IC50 A549; for Antiproliferative Activity, A549: +/− summary, IC50 vs betulin 1
Procedure: as §3, §4, §5, §6, §7

[2] = Experimental lipophilicity by RP-TLC; conditions: RP-TLC, RP-18 F254S, acetone / Tris buffer pH 7.4, extrapolated to zero acetone
Procedure: The retention mechanism in the RP-TLC method is based on the partition of substances between two phases. Silica gel (RP-18 F254S plates) was used as the hydrophobic stationary phase. In contrast, the hydrophilic mobile phase was a binary mixture of acetone and an aqueous solution of TRIS buffer.
Chromatographic analysis by RP-TLC was performed an aluminum backed silica gel RP-18 F254S
phenylanthracene] and tested betulin derivatives were dissolved in chloroform to obtain a
concentration of 2 mg/mL. The prepared solutions were spotted on the plates in the amount of 2 μL.
the next step, the chromatographic chambers were saturated 30 min of the appropriate mobile phases
consisting of a mixture of acetone (Merck, Darmstadt, Germany) and aqueous solution of buffer Tris
[(tris-hydroxymethyl)aminomethane] (Fluka, Loughborough, 0.2 M, pH 7.4). The amount of acetone in
the mobile phase were in the range 60-90% in 5% increments. The chromatograms were developed for
each compound in triplicate at room temperature. The spots of betulin derivatives were visualized by
spraying the plates with the mixture of ethanol and concentrated sulfuric acid (10:1, v/v) and heating
The retardation factor (Rf) were calculated according to the equation below:
(a-the distance from the start line to the spot center, b-the distance from the start line to the mobile
The RM values were calculated by the Bate-Smith and Westall equation:
The RM0 parameters were obtained by extrapolating on the acetone content to zero, according to the
Soczewiński-Wachtmeister equation:
(C-the percentage concentration of acetone in the mobile phase, b-the slope of the regression plot).
The calibration curve was determined using eight reference compounds.
compounds were determined under the same conditions as for betulin derivatives (Table S1).

[3] = set-up: method as in earlier work; conditions: literature lipophilicity of RP-TLC reference compounds; cited from earlier work
caspase-3/7 [4] = assay: Caspase-3/7 activity (AC-DEVD-AMC substrate) in MV4-11 cells; format: cell-based, human
Excerpt: (§1) Caspase-3 and caspase-7 are cysteine-aspartic acid proteases that can directly execute apoptosis […] sequential activation of caspase-8 or caspase-9. Activation of these enzymes leads to apoptotic cell death; thus, measuring their activity is a good method to determine the pro-apoptotic potential of tested compounds. One of the mechanisms of betulin’s antiproliferative activity is activation of these enzymes; therefore, to further examine the mechanism of action of tested derivatives, we decided to determine their levels.
The MV4-11, A549 and PC-3 cells were seeded on 48-well plates for a final volume of 1 mL. […] After incubation, the cells were collected and centrifuged (5 min., 4 °C, 250× g). Cells were suspended in 50 µL of ice-cold lysis buffer (50 mM HEPES, 10% (w/v) sucrose, 150 mM NaCl, 2 mM EDTA and 1% (v/v) Triton X-100, pH 7.3, HIIET, Poland) and incubated 30 min. at 40 °C. […] The fluorescence increase correlated with the caspase-3/7 level was continuously recorded at 37 °C for 120 min using a Biotek Synergy H4 (Biokom, Warsaw, Poland). […]

A549 cells = assay: Cell cycle analysis, PI staining flow cytometry, A549; format: cell-based, human; conditions: about IC50, 72 h
Procedure: The effects of the selected derivatives on the cell cycle were analyzed by flow cytometry using PI staining.
The MV4-11, A549 and PC-3 cells were seeded on 24-well plates (Sarstedt, Germany) for a final volume of 1.5 mL. […] After incubation, the cells were collected and 1 × 10^6 of cells were washed twice in cold PBS and fixed for 24 h in 70% ethanol at −20 °C, the cells were washed twice in PBS and incubated with RNAse (8 μg/mL, Fermentas, Germany) at 37 °C for 1 h. The cells were stained for 30 min. with propidium iodide (50 μg/mL, Sigma Aldrich, Germany) at 4 °C and the cellular DNA content was analyzed by flow cytometry using BD LSRFortessa cytometer (BD Bioscience, San Jose, CA, USA). Compounds at each concentration were tested at least three times independently. The obtained results were analyzed using Flowing software 2.5.1 (Cell Imaging Core, Turku Centre for Biotechnology, University of Turku and Åbo Akademi University, Turku, Finland).

in vitro = conditions: mouse
Procedure: as §3, §4, §5, §6, §7

caspase-3/7 [5] = assay: Caspase-3/7 activity (AC-DEVD-AMC substrate) in PC-3 cells; format: cell-based, human; set-up: key to Caspase 3/7 Activity, PC-3: +: plus mark represents statistically important elevated activity of caspase 3/7 compared to control
Excerpt: as §1
(§2) The MV4-11, A549 and PC-3 cells were seeded on 48-well plates for a final volume of 1 mL. […] After incubation, the cells were collected and centrifuged (5 min., 4 °C, 250× g). Cells were suspended in 50 µL of ice-cold lysis buffer (50 mM HEPES, 10% (w/v) sucrose, 150 mM NaCl, 2 mM EDTA and 1% (v/v) Triton X-100, pH 7.3, HIIET, Poland) and incubated 30 min. at […]. After the incubation, 40 µL of each sample was transferred to a white, 96-well plate (Corning, CA, USA) containing 160 µL of the reaction buffer (20 mM HEPES, 10 % sucrose, 100 mM NaCl, 1 mM EDTA, 10 mM DTT, 0.02 % Trition X-100, pH 7.3) (HIIET, Wroclaw, Poland) with 9 µM AC-DEVD-AMC (Cayman Chemical) fluorogenic substrate (λex = 360 nm, λem = 460 nm). The fluorescence increase correlated with the caspase-3/7 level was continuously recorded at 37 °C for 120 min using a Biotek Synergy H4 (Biokom, Warsaw, Poland). Compounds were tested in duplicates in a single experiment and each experiment was repeated at least three times independently. Results were normalized to the number of cells in each well and are reported as mean relative caspase-3/7 activity compared to the untreated control sample ± SD.

caspase-3/7 [6] = assay: Caspase-3/7 activity (AC-DEVD-AMC substrate) in A549 cells; format: cell-based, human; set-up: key: +: plus mark represents statistically important elevated activity of caspase 3/7 compared to control
Excerpt: as §1, §2

PC-3 cells = assay: Induction of apoptosis, Annexin V/PI staining, PC-3; format: cell-based, human; conditions: about 1.5 × IC50, 72 h
Excerpt: Apoptosis is one of a cell’s natural mechanisms for programmed cell death. It plays a crucial role in homeostasis by eliminating the unwanted or unnecessary cells. One of the most important functions of apoptosis is prevention of cancer. However, cancer cells often lose the ability to enter the path of apoptosis, which allows them to survive longer and grow in an uncontrolled manner. Regardless of that, apoptosis still remains the most important molecular mechanism to combat cancer cells; therefore, research is conducted to obtain agents with the ability to selectively induce apoptosis in cancer cell lines.
The MV4-11, A549 and PC-3 cells were seeded on 24-well plates (Sarstedt, Germany) for a final volume of 1.5 mL. […] After incubation, the cells were collected and 2 × 10^5 of cells were washed twice with PBS. […] Results were analyzed using Flowing software 2.5.1. […]

[7] = Solubility in DMSO for stock preparation; format: physicochemical
[8] = 1.5 × IC50, 24 h, several-fold lower at 72 h

SMILES	IC50 (MCF-7 cell line) [µM]	Calculated Selectivity Index SI, MCF-7 (MCF-7 cell line)	IC50 (PC-3 cell line) [µM]	Calculated Selectivity Index SI, PC-3 (PC-3 cell line)	IC50 (MV4-11 cells) [µM]	Calculated Selectivity Index SI, MV4-11 (MV4-11 cells)	IC50 (A549 cell line) [µM]	Calculated Selectivity Index SI, A549 (A549 cell line)	RM0 [2]	IC50 at 72 h (in vitro) [µM]	solubility in DMSO [7]	further results
COc1cccc2c1C(=O)c1c(O)c3c(c(O)c1C2=O)C[C@@](O)(C(=O)CO)C[C@@H]3O[C@H]1C[C@H](N)[C@H](O)[C@H](C)O1 [Doxorubicin, doxorubicin, reference compound]	0.08	2.3	0.43	0.4	0.01	18.0	0.04	4.5				IC50 at 72 h ([1]; BALB/3T3 normal fibroblast cells): 0.18 µM
C=C(C)[C@@H]1CC[C@]2(CO)CC[C@]3(C)[C@H](CC[C@@H]4[C@@]5(C)CC[C@H](O)C(C)(C)[C@@H]5CC[C@]43C)[C@@H]12 [Betulin 1, betulin]	38.8	0.8	32.5	1.0	18.2	1.8	15.5	2.0				IC50 at 72 h [1]: 31.8 µM
c1ccc(CCc2ccccc2)cc1 [dibenzyl, reference compound]									3.54			LogPlit [3]: 4.49
C=C(C)[C@@H]1CC[C@]2(COC(=O)CCC(=O)N3CCSCC3)CC[C@]3(C)C(CCC4[C@@]5(C)CC[C@H](O)C(C)(C)C5CC[C@]43C)C12 (stereo partly drawn) [2d]	50	1.0	50	1.0	3.16	15.8	32	1.6	5.898	> 50		caspase-3/7 levels, MV4-11, 24 h (caspase-3/7 [4]): increased levels of caspase-3/7; Influence on cell cycle, A549, 72 h (A549 cells): greater percentage of dead cells with a decrease in G2/M and G0/G1 phases
C=C(C)[C@@H]1CC[C@]2(COC(=O)CCC(=O)N3CCOCC3)CC[C@]3(C)C(CCC4[C@@]5(C)CC[C@H](O)C(C)(C)C5CC[C@]43C)C12 (stereo partly drawn) [2b]	19.3	1.3	17.9	1.4	3.94	6.4	8.03	3.1	5.024	25		caspase-3/7 activity, PC-3 (caspase-3/7 [5]; 1.5 × IC50, 24 and 72 h): very high level of caspase-3/7 after 24 and 72 h; Caspase 3/7 Activity, PC-3 (caspase-3/7 [5]; +/− summary vs control): +; Antiproliferative Activity, PC-3 (PC-3 cell line; +/− summary, IC50 vs betulin 1): +; caspase 3/7 activity, A549 (caspase-3/7 [6]; [8]): hugely elevated caspase 3/7 activity; caspase 3/7 activity, A549 (caspase-3/7 [6]; +/− summary vs control): +; Induction of apoptosis (AnV/PI), PC-3, 72 h (PC-3 cells): shifting the ratio of the living cell population towards apoptotic and necrotic ones; Antiproliferative Activity, A549 (A549 cell line): +
C=C(C)[C@@H]1CC[C@]2(COC(=O)CCC(=O)N3CCCCC3)CC[C@]3(C)C(CCC4[C@@]5(C)CC[C@H](O)C(C)(C)C5CC[C@]43C)C12 (stereo partly drawn) [2c]	22.2	1.5	30.9	1.1	5.78	5.7	6.98	4.7	5.728	32.7		caspase-3/7 levels, MV4-11, 24 h (caspase-3/7 [4]): increased levels of caspase-3/7; caspase 3/7 activity, A549 (caspase-3/7 [6]; [8]): hugely elevated caspase 3/7 activity; caspase 3/7 activity, A549 (caspase-3/7 [6]; +/− summary vs control): +; Influence on cell cycle, A549, 72 h (A549 cells): induced cycle arrest in the G0/G1 phase with a decrease in the G2/M phase; Antiproliferative Activity, A549 (A549 cell line): +
C=C(C)[C@@H]1CC[C@]2(COC(=O)CCCCCCCCCC(=O)N3CCCCC3)CC[C@]3(C)C(CCC4[C@@]5(C)CC[C@H](O)C(C)(C)C5CC[C@]43C)C12 (stereo partly drawn) [5c]									5.768		not soluble in DMSO	
C=C(C)C1CCC2(COC(=O)C=C(C)C(=O)N3CCCCC3)CCC3(C)C(CCC4C5(C)CCC(O)C(C)(C)C5CCC43C)C12 (stereo not drawn) [3c]									5.650		not soluble in DMSO	
C=C(C)[C@@H]1CC[C@]2(COC(=O)CCCC(=O)N3CCCCC3)CC[C@]3(C)C(CCC4[C@@]5(C)CC[C@H](O)C(C)(C)C5CC[C@]43C)C12 (stereo partly drawn) [4c]									5.012		not soluble in DMSO	
C=C(C)[C@@H]1CC[C@]2(COC(=O)c3cccc(C(=O)N4CCCCC4)c3)CC[C@]3(C)C(CCC4[C@@]5(C)CC[C@H](O)C(C)(C)C5CC[C@]43C)C12 (stereo partly drawn) [7c]									5.773		not soluble in DMSO	
